Experimental findings from patent US20240287022A1 (Merck Sharp & Dohme LLC, priority 2021, published 2024) are described below.

Molecules are shown by their SMILES. pEC50: −log10 of the molar value.

The target of this assay is recombinant IL4I1 (Homo sapiens (Human), UniProt Q96RQ9). The assay can be described thus: IL4I1 Enzymatic Assay (Amplex Red/HRP coupled H2O2 detection). Conditions: 1 nM IL4I1, 1 mM each Phe/Tyr/Trp, four-hour pre-incubation, 120 minutes reaction, top compound concentration of 10000 nM. It counts as biochemical. The method in brief: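 Recombinant IL4I1 (1 nM final) was pre-incubated 4 h at ambient temperature with compound in 50 mM Hepes pH 7.0, 0.005% Tween20. Reaction ran 120 min with 1 mM each Phe/Tyr/Trp, 0.05 mM Amplex Red and 1 U/mL HRP. Resorufin fluorescence (544/590 nm) was read, and EC50 fitted from ten-point 1:3 titrations (top 10000 nM) by four-parameter regression.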
recombinant IL4I1, sequence (Q96RQ9 22-567): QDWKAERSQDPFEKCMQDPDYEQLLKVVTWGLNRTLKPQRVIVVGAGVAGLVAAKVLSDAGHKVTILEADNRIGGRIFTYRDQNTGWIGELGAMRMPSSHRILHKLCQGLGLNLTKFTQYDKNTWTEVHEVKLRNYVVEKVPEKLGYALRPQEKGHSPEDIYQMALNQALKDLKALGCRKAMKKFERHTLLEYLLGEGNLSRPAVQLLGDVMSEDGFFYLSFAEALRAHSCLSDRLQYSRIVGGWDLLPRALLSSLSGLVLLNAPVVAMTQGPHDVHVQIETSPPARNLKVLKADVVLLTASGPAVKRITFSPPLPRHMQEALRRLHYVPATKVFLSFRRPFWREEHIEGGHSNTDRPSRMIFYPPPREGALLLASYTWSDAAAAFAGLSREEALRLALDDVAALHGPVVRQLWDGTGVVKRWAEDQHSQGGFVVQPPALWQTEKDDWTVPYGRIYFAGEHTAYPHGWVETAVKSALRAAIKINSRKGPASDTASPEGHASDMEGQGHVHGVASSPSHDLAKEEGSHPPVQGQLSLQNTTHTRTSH
For the molecule `CC(=O)NCc1ccc(Cc2cc3ccccc3[nH]c2=O)cc1F` [Example 166, N-(2-fluoro-4-((2-oxo-1,2-dihydroquinolin-3-yl)methyl)benzyl)acetamide], the pEC50 (commonly the EC50 on a negative log10 scale, so that one unit is a factor of ten) was 8.57.

For `CC(=O)NCc1ccc(Cc2cc3ccccc3[nH]c2=O)c(F)c1` [Example 167, N-(3-fluoro-4-((2-oxo-1,2-dihydroquinolin-3-yl)methyl)benzyl)acetamide], the pEC50 was 8.31.

In the case of `CC(=O)NCc1ccc(Cc2cc3ccccc3[nH]c2=O)cc1C` [Example 168, N-(2-methyl-4-((2-oxo-1,2-dihydroquinolin-3-yl)methyl)benzyl)acetamide], the pEC50 was 8.47.

Regarding `CN1C(=O)COc2ccc(Cc3cc4ccccc4[nH]c3=O)cc21` [Example 169, 4-Methyl-6-((2-oxo-1,2-dihydroquinolin-3-yl)methyl)-2H-benzo[b][1,4]oxazin-3(4H)-one], the negative logarithm of the EC50 (pEC50) was 8.64.

As for `O=C1COc2c(Cl)cc(Cc3cc4ccccc4[nH]c3=O)cc2N1` [Example 170, 8-Chloro-6-((2-oxo-1,2-dihydroquinolin-3-yl)methyl)-2H-benzo[b][1,4]oxazin-3(4H)-one], the pEC50 is 9.00.

Turning to `O=C1COc2ccc(Cc3cc4ccccc4[nH]c3=O)c(F)c2N1` [Example 171, 5-Fluoro-6-((2-oxo-1,2-dihydroquinolin-3-yl)methyl)-2H-benzo[b][1,4]oxazin-3(4H)-one], the pEC50 was 8.15.

`COc1ccc2[nH]c(=O)c(Cc3ccccc3)cc2c1` [Example 172, 3-benzyl-6-methoxyquinolin-2(1H)-one]: the pEC50 is 6.27.

`CC(C)(O)c1ccc2[nH]c(=O)c(Cc3ccccc3)cc2c1` [Example 173, 3-Benzyl-6-(2-hydroxypropan-2-yl)quinolin-2(1H)-one]: the pEC50 was 5.16.

Take `N#Cc1ccc2[nH]c(=O)c(Cc3ccccc3)cc2c1` [Example 174, 3-Benzyl-2-oxo-1,2-dihydroquinoline-6-carbonitrile]: the pEC50 was 5.00.

As for `Cn1c(=O)c(CC2CC2c2ccccc2)cc2ccccc21` (stereo not shown) [Example 175, 1-Methyl-3-((2-phenylcyclopropyl)methyl)quinolin-2(1H)-one], the pEC50 is 8.11.

On to `O=C1COc2c(F)cc(Cc3cc4ccccc4[nH]c3=O)cc2N1` [Example 176, 8-Fluoro-6-((2-oxo-1,2-dihydroquinolin-3-yl)methyl)-2H-benzo[b][1,4]oxazin-3(4H)-one], for which the pEC50 is 8.85.

Regarding `O=c1[nH]c2c(CO)cccc2cc1Cc1cccc(OC(F)(F)F)c1` [Example 177, 8-(hydroxymethyl)-3-(3-(trifluoromethoxy)benzyl)quinolin-2(1H)-one], the pEC50 is 5.72.

Consider `NCc1cccc2cc(Cc3cccc(OC(F)(F)F)c3)c(=O)[nH]c12` [Example 178, 8-(aminomethyl)-3-(3-(trifluoromethoxy)benzyl)quinolin-2(1H)-one], for which the pEC50 was 7.00.

As for `CC(C)(O)Cc1ccc(Cc2cc3ccccc3[nH]c2=O)cc1` [Example 179, 3-(4-(2-Hydroxy-2-methylpropyl)benzyl)quinolin-2(1H)-one], the pEC50 is 8.31.

Consider `CNCc1cccc2cc(Cc3cccc(OC(F)(F)F)c3)c(=O)[nH]c12` [Example 180, 8-((methylamino)methyl)-3-(3-(trifluoromethoxy)benzyl)quinolin-2(1H)-one], for which the pEC50 is 6.98.

In the case of `O=C1CCC(c2ccc(Cc3cc4ccccc4[nH]c3=O)cc2Cl)N1` (stereo not shown) [Example 181, 3-(3-chloro-4-(5-oxopyrrolidin-2-yl)benzyl)quinolin-2(1H)-one], the pEC50 was 8.60.

On to `O=c1[nH]c2ccccc2cc1Cc1ccc(C2COCC2O)cc1` (stereo not shown) [Example 182, 3-(4-(4-hydroxytetrahydrofuran-3-yl)benzyl)quinolin-2(1H)-one], for which the pEC50 is 8.14.

In the case of `CC(C)(O)c1ccc(Cc2cc3cnccc3[nH]c2=O)cc1Cl` [Example 184, 3-(3-Chloro-4-(2-hydroxypropan-2-yl)benzyl)-1,6-naphthyridin-2(1H)-one], the pEC50 was 7.82.

For `O=C1NC(=O)c2cc(Cc3cc4ccccc4[nH]c3=O)ccc21` [Example 185, 5-((2-oxo-1,2-dihydroquinolin-3-yl)methyl)isoindoline-1,3-dione], the pEC50 was 8.04.

`CC1(O)CN(C(=O)c2ccc(Cc3cc4ccccc4[nH]c3=O)cc2)C1` [compound 2, 3-(4-(3-hydroxy-3-methylazetidine-1-carbonyl)benzyl)-quinolin-2(1H)-one]: the pEC50 was 7.46.

As for `CC1(N)CN(c2ccc(Cc3cc4ccccc4[nH]c3=O)cc2)C1` [compound 60, 3-(4-(3-amino-3-methylazetidin-1-yl)benzyl)quinolin-2(1H)-one], the pEC50 was 7.70.

With `O=C1N(c2ccc(Cc3cc4cnccc4[nH]c3=O)cc2)CCC1(F)F` [compound 62, 3-(4-(3,3-difluoro-2-oxopyrrolidin-1-yl)benzyl)-1,6-naphthyridin-2(1H)-one], the negative logarithm of the EC50 (pEC50) was 8.22.

As for `O=c1[nH]c2ccccc2cc1Cc1ccc(CC2CNC2)cc1` [compound 64, 3-(4-(azetidin-3-ylmethyl)benzyl)quinolin-2(1H)-one], the pEC50 is 7.97.

As to `CC(=O)NCc1ccc(Cc2cc3ccccc3[nH]c2=O)c(Cl)c1` [compound 67, N-(3-chloro-4-((2-oxo-1,2-dihydroquinolin-3-yl)-methyl)benzyl)acetamide], the pEC50 was 7.81.

Take `CC1(O)CC(c2ccc(Cc3cc4cnccc4[nH]c3=O)cc2)C1` (stereo not shown) [compound 162, 3-(4-(3-hydroxy-3-methylcyclobutyl)benzyl)-1,6-naphthyridin-2(1H)-one]: the pEC50 was 8.17.
